Source: article PMC11219871, “Epigenetic-based differentiation therapy for Acute Myeloid Leukemia” (Nature Communications, 2024)
Values joined by “and” are separate entries in the source; they are usually repeats but may differ in a detail not shown here. Equal values may be shown once. Read-outs that look alike come from different tables or passages of the source.

Key:
[1] = Pharmacokinetic study in plasma samples; assay type: in vivo, mouse; details: 10 mg/kg i.p.; for CL/F: read-out: Norm. Cl/F (converted)
Procedure: Compounds CM-444 and CM-1758 were measured in plasma using an Acquity UPLC system (Waters, Manchester, UK) coupled to an Xevo-TQ MS triple-quadrupole mass spectrometer with ESI source.
Compound solutions were prepared by dissolving the solid in dimethyl sulfoxide (DMSO) and this solution was made up to a final volume by the addition of a mixture of Tween 20 and 0.9% NaCl (1/1/8, v-v:v, DMSO/Tween 20/saline). For the pharmacokinetic experiments, a drug dosage of 10 mg/kg was administered as a single intraperitoneal injection to RAG-2 mice. Blood was collected at predetermined post-injection times (15 min, and 1, 2, 4, 8 and 24 h) into EDTA-containing tubes, and plasma was obtained via centrifugation (4 °C, 657 g, 5 min) and stored at −80 °C until analysis.
Chromatographic separation was performed by gradient elution at 0.6 mL/min using an Acquity UPLC BEH C18 column (50 × 2.1 mm, 1.7 µm; Waters). The mobile phase consisted of A: water with 0.1% formic acid, B: methanol with 0.1% formic acid. The autosampler temperature was set at 10 °C and the column temperature at 40 °C. For detection and quantification, the ESI operated in the positive mode was set up for multiple reaction monitoring. The collision gas used was ultra-pure argon at a flow rate of 0.15 mL/min.
Quantification was achieved by external calibration using matrix-matched standards. Concentrations were calculated using a weighted least-squares linear regression (W = 1/x). Calibration standards were prepared by adding the appropriate volume of diluted compound solution (made in a mixture of methanol and water, 50:50, v-v) to aliquots of 20 µL of blank plasma. The calibration standard and sample preparation were as follows: 3% formic acid in methanol was added to precipitate the proteins. The mixture was then vortex-agitated for 1 min and centrifuged at 16,522 g for 10 min at 4 °C. A 5-µL aliquot of the supernatant solution was injected into the LC-MS/MS system for analysis. Frozen plasma samples were thawed at room temperature, vortex mixed thoroughly and subjected to the above-described extraction procedure.
The pharmacokinetic parameters were obtained by fitting the blood concentration-time data to a non-compartmental model with WinNonlin software (Pharsight, Mountain View, CA).

[2] = system: LINE-1 DNA methylation in MV4-11; assay: LINE-1 pyrosequencing; assay type: cell-based, human
Procedure: DNA methylation of the repetitive element LINE-1 was analyzed using a pyrosequencing technique. […] Cells were washed twice with PBS, and then genomic DNA was extracted using a DNA Kit (Nucleo Spin Tissue, Cat No 74095250, Macherey-Nagel) following the manufacturer's instructions. DNA purity and concentration were measured using a NanoDrop spectrophotometer (Thermo Scientific). A 1 μg amount of genomic DNA was treated and modified using a CpGenome DNA modification Kit (Cat No S7820, Chemicon International) following the manufacturer's instructions. […] [NT]) in a final volume of 25 μL. The resulting biotinylated PCR products were immobilized to Streptavidin Sepharose ® High-Performance beads (GE Healthcare) and processed to yield high-quality ssDNA using the PyroMark Vacuum Prep Workstation (Biotage) according to the manufacturer's instructions. The pyrosequencing reactions were performed using the PyromarkTM ID (Biotage), and sequence analysis was performed using the PyroQ-CpG analysis software (Biotage).

HDAC2 = HDAC2 (Homo sapiens, UniProt Q92769); assay: HDAC enzymatic assay, fluorescence-labeled substrate; assay type: biochemical; details: for inhibition at 10 µM: source data of Fig. 1B
Sequence of HDAC2 (Q92769 whole entry): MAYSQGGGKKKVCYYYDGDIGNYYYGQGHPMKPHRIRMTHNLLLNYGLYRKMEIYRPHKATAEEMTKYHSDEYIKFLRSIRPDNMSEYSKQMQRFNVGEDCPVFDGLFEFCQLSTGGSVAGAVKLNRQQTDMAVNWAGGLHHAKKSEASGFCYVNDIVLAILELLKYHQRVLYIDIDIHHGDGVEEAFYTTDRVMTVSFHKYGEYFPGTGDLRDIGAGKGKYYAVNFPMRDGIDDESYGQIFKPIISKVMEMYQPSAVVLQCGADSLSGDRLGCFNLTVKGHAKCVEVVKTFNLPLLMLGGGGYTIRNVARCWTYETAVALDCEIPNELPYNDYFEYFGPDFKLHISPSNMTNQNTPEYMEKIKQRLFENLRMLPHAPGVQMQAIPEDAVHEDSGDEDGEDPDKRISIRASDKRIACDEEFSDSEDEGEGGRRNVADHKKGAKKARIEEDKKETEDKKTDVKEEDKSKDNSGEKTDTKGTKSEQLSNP

[3] = RAG-2, mouse, plasma, intraperitoneal, read-out: plasmatic concentration, Mean
[4] = RAG-2, mouse, plasma, ip, mice, NCA
[5] = RAG-2, mouse, plasma, ip, mice, NCA, read-out: Norm. Vz/F

| Structure (SMILES) | Cl/F ([1]; mice, NCA, mean) [L/h] | concentration at 0.25 h [1, 3] [nM] | concentration at 1 h [1, 3] [nM] | concentration at 2 h [1, 3] [nM] | concentration at 4 h [1, 3] [nM] | concentration at 8 h [1, 3] [nM] | CL/F [1, 4] [mL/min/kg] | Vd/F [1, 5] [L/kg] | clearance ([1]; mice) [lh^−1] | LINE-1 methylation (%) CG Position 1 ([2]; MV4-11, 48 hours) | LINE-1 methylation (%) CG Position 2 ([2]; MV4-11, 48 hours) | LINE-1 methylation (%) CG Position 3 ([2]; MV4-11, 48 hours) | LINE-1 methylation (%) CG Position 4 ([2]; MV4-11, 48 hours) | LINE-1 methylation (%) CG Position 5 ([2]; MV4-11, 48 hours) | LINE-1 methylation (%) CG Position 1 ([2]; MV4-11, 5 days) | LINE-1 methylation (%) CG Position 2 ([2]; MV4-11, 5 days) | LINE-1 methylation (%) CG Position 3 ([2]; MV4-11, 5 days) | LINE-1 methylation (%) CG Position 4 ([2]; MV4-11, 5 days) | LINE-1 methylation (%) CG Position 5 ([2]; MV4-11, 5 days) | IC50 (HDAC2) [nM] | other results |
| --- | --- | --- | --- | --- | --- | --- | --- | --- | --- | --- | --- | --- | --- | --- | --- | --- | --- | --- | --- | --- | --- |
| COc1cc2nc(-c3cc(C)oc3C)cc(NCC3CCN(c4ncc(C(=O)NO)cn4)CC3)c2cc1OC [CM-1758, 2-[4-[[[2-(2,5-dimethyl-3-furyl)-6,7-dimethoxy-4-quinolyl]amino]methyl] -1-piperidyl]pyrimidine-5-carbohydroxamic acid] | 0.26 | 1700 | 352 | 77.5 | 17.1 | 4.3 | 173 | 28.6 | 0.26 | 85% | 80% and 74% | 87% | 95% and 97% | 69% and 65% | 79% and 75% | 77% and 79% | 82% and 84% | 92% and 86% | 66% and 60% | 31 | plasmatic concentration, Mean ([1]; 24 h): BLOQ; AUC(0-t) ([1]; RAG-2, mouse, plasma, ip, mice, NCA, mean): 1.69 µM·h; Vd/F ([1]; RAG-2, mouse, plasma, ip, mice, NCA, mean, read-out: Vz/F): 0.72 L; half-life ([1]; RAG-2, mouse, plasma, ip, mice, NCA, mean, read-out: t½ (converted)): 1.95 h; inhibition at 10 µM (HDAC2): 90% |
| COc1cc2nc(-c3ccc(C)o3)cc(NCC3CCN(c4ncc(C(=O)NO)cn4)CC3)c2cc1OC [CM-444, 2-[4-[[[6,7-dimethoxy-2-(5-methyl-2-furyl)-4-quinolyl]amino]methyl]-1-piperidyl]pyrimidine-5-carbohydroxamic acid] | 0.53 | 916 | 203 | 27.7 | 5 | 2.4 | 355 | 262 | 0.53 | 83% and 85% | 79% and 77% | 99% and 97% | 100% | 70% and 66% | 80% and 82% | 79% and 77% | 77% | 91% and 89% | 65% and 67% | 51 | AUClast ([1]; mice, NCA, mean): 0.91615 µM·h; Vz/F ([1]; mice, NCA, mean): 6.56 L; t½ ([1]; mice, NCA, mean): 8.46 h; concentration at 24 h ([1]; RAG-2, mouse, plasma, intraperitoneal, 24 h, read-out: plasmatic concentration, Mean): 0.9 nM; inhibition at 10 µM (HDAC2): 90% |
